Measurements taken from patent US20090203877A1, “X-RAY-DENSE CONJUGATE” (Eberhard-Karls-Universitaet Tuebingen Universitaetsklinkum, priority 2006, published 2009).
“Also recorded” adds a separate entry of the source.

How the values were obtained:
Assay type in all cases: cell-based
[1] = tested on: human malignant LN18 glioma cells; assay: Cell viability / cell death (annexin-V-Alexa 568 binding, propidium iodide, FACS scatter morphology); conditions: for influence on the cell viability: free compound alone, each 250 μM (FIG. 15)
Procedure: All measurements were performed on living, non-fixed cells. […] All measurements were performed on living cells. […] All measurements were performed on living cells in triplicates. […] All measurements were performed on living cells.

[2] = tested on: human malignant LN18 glioma cells; assay: Uptake/staining of cells by FITC-labelled conjugates (CLSM, FACS, semi-thin sections); conditions: for staining rate / number of stained cells: free compound co-incubated with conjugate 3 (260 μM); for cells strongly stained by FITC, FACS histogram: free unbound compound incubated in combination with conjugate 3 (260 μM)
Procedure: (§1) The human malignant U373 and LN18 glioma cells were cultivated in 75 cm^2 culture flasks (Corning Costar) (70% confluency) under the conditions as described under 1.4, detached from the flask bottom with Accutase™ (PAA Laboratories) and in the following distributed on Eppendorf tubes (Eppendorf, Hamburg, Germany) (6×10^6 per tube). The cells in the first tube serve as a control (only PBS buffer only). The cells in the other ten tubes were each incubated with benzoic acid (BA), monoiodobenzoic acid (MIBA) or diiodobenzoic acid (DIBA) alone (260 μM), conjugate 3 alone (260 μM), conjugate 3 plus either BA, MIBA or DIBA (260 μM), respectively, and the conjugates 9, 10, and 11 alone. (260 μM).
After an incubation of 20 minutes at 37° C./5% CO2 the cells were washed three times with PBS buffer and centrifuged at 800 rpm (rounds per minute) for 5 minutes. The fluorescence was measured in Becton Dickinson FACSCalibur as described under 1.4. The computer tomography was performed as described under 1.5.1. The examinations were repeated two times. […]
(§2) The FACS analysis was performed as described under 1.4. The assay was repeated two times.
(§3) For the CT and FACS examinations human LN18 and U373 glioma cells were cultivated in 75 cm^2 culture flasks (70% confluency) (conditions as described under section 1). Accutase™ (PAA Laboratories) was added to detach the cell from the culture bottom. The cells were collected and then distributed on Eppendorf-tubes (6×10^6 cells per tube). […] The next three tubes were used for the coincubation of the cells either with trichlorobenzoic acid (TCBA), trifluorobenzoic acid (TFBA) or tribromophenyl Isocyanat (TBPI) and the NLS-FITC-conjugate 3 (260 μM). As control cells were used which were only either incubated with CIBA, FIBA, TBPI (in each case 260 μM in PBS) or with PBS-buffer (native control) alone. […] The computer tomography and FACS analysis of the cell centrifuges were performed as described in 1.5.1 or 1.4, respectively for three times.
All measurements were performed on living cells.
All measurements were performed on living cells in triplicates.
A part of the cells which were stained for the FACS analysis, was fixed by paraformaldehyl with 2% Agar, dehydrogenized in ethanol, embedded in Lowicryl K4M (Polysciences, Eppelheim, Germany) and according to the information of the manufacturer UV-polymerised at room temperature. Semi-thin sections (about 0.4 μm) were cut and evaluated by means of fluorescence microscopy.

[3] = tested on: human malignant U373 glioma cells; assay: Uptake/staining of cells by FITC-labelled conjugates (fluorescence microscopy, CLSM, FACS, semi-thin sections); conditions: free unbound compound incubated in combination with conjugate 3 (260 μM)
Procedure: Fluorescence was measured in a Becton Dickinson FACSCalibur. […] The investigations were performed in triplicate.
For CT and FACS human U373 glioma cells were grown under the same conditions in 75 cm^2 culture flasks (Corning Costar, Bodenheim, Germany) (70% confluency). Accutase™ (PAA laboratories, Pasching, Austria) was added to achieve detachment of the cells which were harvested and subsequently aliquoted into Eppendorf tubes (6×10^6 cells per tube). As in the investigations performed by fluorescence microscopy, the cells in the first tube served as a control (PBS only). The cells in the other tubes were incubated with 260 μM Ultravist, 260 μM TIBA in PBS and 26 μM, 260 μM and 2.6 mM conjugates 1-4 in PBS. After a 20 minute incubation period at 37° C. in an atmosphere of 5% CO2, the cells were washed three times in PBS and centrifuged at 800 rpm for 5 minutes.
The FACS analysis was performed as described under 1.4.
as §1
After an incubation of 20 minutes at 37° C./5% CO2 the cells were washed three times with PBS buffer and centrifuged at 800 rpm (rounds per minute) for 5 minutes. The fluorescence was measured in Becton Dickinson FACSCalibur as described under 1.4. The computer tomography was performed as described under 1.5.1. The examinations were repeated two times.
For the CT and FACS examinations human LN-18 and U373 glioma cells were cultivated in 75 cm^2 culture flasks (Corning Costar) (70% confluency) (conditions as described under 1.4). Accutase™ (PAA Laboratories) was added to detach the cells from the bottom of the culture flasks. The cells were collected and then distributed on Eppendorf tubes (6×10^6 cells per tube). The cells in the first two tubes serve as a control (in each case only PBS, LN18 and U373 glioma cells, native). The cells in the other tubes (in each case LN18 and U373 glioma cells) were incubated with a 260 μM or 2.6 mM solution of the conjugate 12 for 20 minutes at 37° C. and 5% CO2 and in the following washed for three times with PBS buffer and centrifuged for 5 minutes with 800 rpm (rounds per minute). For a small amount of the cells it was tested by the MMT test (see 1.4) how many of the cells were still viable. The computer tomography of the cell centrifuges was performed with the Somatom Sensation 16 (Siemens).
as §2
as §3, with “times. […]” for “times.”

[4] = free compound co-incubated with conjugate 3 (260 μM)

| Substance | cell death / vitality (annexin-V-Alexa 568, propidium iodide) ([1]; 260 μM, 20 min, substance alone) | influence on the cell viability [1] | cell death / vitality (annexin-V-Alexa 568, propidium iodide) [1, 4] | cell death / vitality (annexin-V-Alexa 568, propidium iodide) ([1]; free compound co-incubated with conjugate 3 (260 μM), listed as TPBI) | staining rate / number of stained cells [2] | staining rate / number of stained cells ([2]; listed as TPBI) | cell death / vitality (annexin-V-Alexa 568, propidium iodide) ([1]; free compound co-incubated with conjugate 3 (260 μM), listed as trichlorobenzoic acid) | staining rate / number of stained cells ([2]; listed as trichlorobenzoic acid) | cells strongly stained by FITC, FACS histogram [2] | cells strongly stained by FITC, FACS histogram [3] |
| --- | --- | --- | --- | --- | --- | --- | --- | --- | --- | --- |
| tribromophenylisocyanate [TBPI] | does not result in a cell death | did not result in any influence on the cell viability | without an impairment of the vitality | did not result in any considerable change | only in the staining of the nucleus in few cells | did not result in any considerable change | – | – | – | – |
| trichlorobenzoic acid [TCBA, reference compound] | – | did not result in any influence on the cell viability | did not result in any considerable change | – | did not result in any considerable change | – | remain vital | only few cells stained in their nuclei | no shift of the histogram peak to the right | no shift of the histogram peak to the right |
| trifluorobenzoic acid [TFBA, reference compound] | – | did not result in any influence on the cell viability | remain vital; also recorded: did not result in any considerable change | – | few stained cells; also recorded: did not result in any considerable change | – | – | – | no shift of the histogram peak to the right | no shift of the histogram peak to the right |
